Assay results taken from patent US9181214B2 (RHIZEN PHARMACEUTICALS SA, priority 2011, dated 2015).

Target: T1, human GPR119 (Homo sapiens, UniProt Q8TDV5)
T1 construct: expressed in transfected cells; host or cells: HEK293 (transient transfection, Lipofectamine 2000)
T1 sequence (Q8TDV5 1-335): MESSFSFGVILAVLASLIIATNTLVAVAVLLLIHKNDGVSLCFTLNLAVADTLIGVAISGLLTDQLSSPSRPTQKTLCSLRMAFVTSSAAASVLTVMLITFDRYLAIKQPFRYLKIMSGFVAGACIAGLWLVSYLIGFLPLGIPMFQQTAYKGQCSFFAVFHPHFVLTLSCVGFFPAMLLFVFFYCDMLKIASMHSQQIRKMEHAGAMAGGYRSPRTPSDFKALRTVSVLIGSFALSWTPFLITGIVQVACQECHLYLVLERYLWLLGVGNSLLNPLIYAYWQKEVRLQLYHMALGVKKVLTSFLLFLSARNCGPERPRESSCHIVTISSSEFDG
Experiment: In vitro cyclic AMP assay (Cisbio HTRF) in HEK293 cells transfected with human GPR119
Assay type: cell-based
Conditions: cAMP; for activation at 10 µM: 1 h, % Induction @ 10 μM; for EC50: Emax varies between 65 to 80%
Method: A. In Vitro Cyclic AMP Assay:
cAMP measurements were done using a Cisbio dynamic 2 HTRF kit (Cisbio, Bedford, Mass.) according to the manufacturer's protocol. Briefly, HEK293 cells (0.2×10^6/well) were plated in a 24 well plate and incubated overnight at 37° C. Cells were transfected with either empty vector DNA or human GPR119 expression plasmid DNA using Lipofectamine 2000 (Invitrogen). After 24 h, transfected cells were harvested, counted and plated at 1000 cells/5 ul in a black 384 welled small volume plate. Cells were treated with desired concentrations of compounds and incubated for 60 min at room temperature. Lysis buffer containing cAMP-d2 and cryptate conjugate were added and incubated for 1 h. HRTF ratio was measured on a microplate reader (BMG Labtech., Germany) at an excitation wavelength of 337 nm and emission wavelengths of 665 and 620 nm with an integration time of 400 μsec. Data were analyzed using Graphpad Prism (Graphpad software; San Diego Calif.) for EC50 determination.
The results are as given in Table I as % Induction@ 10 μM, Table II as % Induction@ 10 μM and EC 50 in nM

Row | activation at 10 µM (Table I) [%] | EC50 (Table I) [nM] | activation at 10 µM (Table II) [%] | EC50 (Table II) [nM] | Structure (SMILES)
1 |  |  | 71.8 | 25 to 50 | CCOC(=O)N1CCC(c2ccc3oc(-c4ccc(S(C)(=O)=O)cc4F)nc3c2)CC1 [EXAMPLE-69, Ethyl 4-{2-[2-fluoro-4-(methylsulfonyl)phenyl]benzo[d]oxazol-5-yl}piperidine-1-carboxylate]
2 |  |  | 64.7 | ≤ 25 | CC(C)(C)OC(=O)N1CCC(c2ccc3oc(-c4ccc(C(F)(F)F)cc4)nc3c2)CC1 [EXAMPLE-70, Tert-butyl 4-{2-[4-(trifluoromethyl)phenyl]benzo[d]oxazol-5-yl}piperidine-1-carboxylate]
3 |  |  | 76.6 | ≤ 25 | CC(C)OC(=O)N1CCC(c2ccc3nc(-c4ccc(S(C)(=O)=O)cc4F)oc3c2)CC1 [EXAMPLE-71, Isopropyl 4-{2-[2-fluoro-4-(methylsulfonyl)phenyl]benzo[d]oxazol-6-yl}piperidine-1-carboxylate]
4 |  |  | 81.6 | ≤ 25 | CCOC(=O)N1CCC(c2ccc3nc(-c4ccc(S(C)(=O)=O)cc4F)oc3c2)CC1 [EXAMPLE-72, Ethyl 4-{2-[2-fluoro-4-(methylsulfonyl)phenyl]benzo[d]oxazol-6-yl}piperidine-1-carboxylate]
5 |  |  | 46 | 500 to 1000 | CC(C)OC(=O)N1CCC(c2ccc3sc(-c4ccc(S(C)(=O)=O)cc4F)nc3c2)CC1 [EXAMPLE-73]
6 |  |  | 14.7 |  | CS(=O)(=O)c1ccc(-c2nc3cc(C4CCN(C(=O)OCc5ccccc5)CC4)ccc3o2)c(F)c1 [EXAMPLE-74, Benzyl 4-{2-[2-fluoro-4-(methylsulfonyl)phenyl]benzo[d]oxazol-5-yl}piperidine-1-carboxylate]
7 |  |  | 57.5 |  | CC(C)COC(=O)N1CCC(c2ccc3oc(-c4ccc(S(C)(=O)=O)cc4F)nc3c2)CC1 [EXAMPLE-75, Isobutyl 4-{2-[2-fluoro-4-(methylsulfonyl)phenyl]benzo[d]oxazol-5-yl}piperidine-1-carboxylate]
8 |  |  | 74.9 | 50 to 250 | CC(C)OC(=O)N1CCC(c2ccc3nc(-c4ccc(S(C)(=O)=O)cc4F)sc3c2)CC1 [EXAMPLE-76, Isopropyl 4-{2-[2-fluoro-4-(methylsulfonyl)phenyl]benzo[d]thiazol-6-yl}piperidine-1-carboxylate]
9 |  |  | 80.4 | 50 to 250 | CC(C)OC(=O)N1CCC(c2ccc3oc(-c4ccc(C(F)(F)F)cc4)nc3c2)CC1 [EXAMPLE-77, Isopropyl 4-{2-[4-(trifluoromethyl)phenyl]benzo[d]oxazol-5-yl}piperidine-1-carboxylate]
10 |  |  | 59.4 |  | Cc1ccc(-c2nc3ccc(C4CCN(C(=O)OC(C)C)CC4)cc3o2)cc1 [EXAMPLE-78, Isopropyl 4-(2-p-tolylbenzo[d]oxazol-6-yl)piperidine-1-carboxylate]

The remaining lines, values behind:

Row | Structure (SMILES) | activation at 10 µM (Table I) [%] | EC50 (Table I) [nM] | activation at 10 µM (Table II) [%] | EC50 (Table II) [nM]
11 | CC(C)C(=O)N1CCC(c2nc3cc(-c4ccc(-n5cnnn5)cc4F)ccc3o2)CC1 [EXAMPLE-32, 1-{4-[5-(2-fluoro-4-(1H-tetrazol-1-yl)phenyl)benzo[d]oxazol-2-yl]piperidin-1-yl}-2-methylpropan-1-one] | 63.9 | 50 to 100 |  | 
12 | CC(C)(C)OC(=O)N1CC=C(c2cc3cc(-c4ccc(C(N)=O)c(F)c4)ccc3o2)CC1 [EXAMPLE-52, Tert-butyl 4-[5-(4-carbamoyl-3-fluorophenyl)benzofuran-2-yl]-5,6-dihydropyridine-1(2H)-carboxylate] | 68.4 | 100 to 500 |  | 
13 | CCCS(=O)(=O)N1CCC(c2nc3cc(-c4ccc(C(N)=O)c(F)c4)ccc3o2)CC1 [EXAMPLE-53, 2-fluoro-4-{2-[1-(propylsulfonyl)piperidin-4-yl]benzo[d]oxazol-5-yl}benzamide] | 39.9 |  |  | 
14 | CC(C)(C)OC(=O)N1CC=C(c2ccc3[nH]c(-c4ccc(S(C)(=O)=O)cc4F)nc3c2)CC1 [EXAMPLE-56, Tert-butyl 4-{2-[2-fluoro-4-(methylsulfonyl)phenyl]-1H-benzo[d]imidazol-5-yl}-5,6-dihydropyridine-1(2H)-carboxylate] |  |  | 38.5 | 
15 | CC(C)(C)OC(=O)N1CCC(c2ccc3[nH]c(-c4ccc(S(C)(=O)=O)cc4F)nc3c2)CC1 [EXAMPLE-57, Tert-butyl 4-{2-[2-fluoro-4-(methylsulfonyl)phenyl]-1H-benzo[d]imidazol-5-yl}piperidine-1-carboxylate] |  |  | 47 | 
16 | CCc1cnc(N2CCC(c3ccc4[nH]c(-c5ccc(S(C)(=O)=O)cc5F)nc4c3)CC2)nc1 [EXAMPLE-58, 5-[1-(5-ethylpyrimidin-2-yl)piperidin-4-yl]-2-[2-fluoro-4-(methylsulfonyl)phenyl]-1H-benzo[d]imidazole] |  |  | 32.2 | 
17 | CC(C)(C)OC(=O)N1CC=C(c2ccc3oc(-c4ccc(S(C)(=O)=O)cc4F)nc3c2)CC1 [EXAMPLE-59, Tert-butyl 4-{2-[2-fluoro-4-(methylsulfonyl)phenyl]benzo[d]oxazol-5-yl}-5,6-dihydropyridine-1(2H)-carboxylate] |  |  | 63.8 | 
18 | CC(C)(C)OC(=O)N1CCC(c2ccc3oc(-c4ccc(S(C)(=O)=O)cc4F)nc3c2)CC1 [EXAMPLE-60, Tert-butyl 4-{2-[2-fluoro-4-(methylsulfonyl)phenyl]benzo[d]oxazol-5-yl}piperidine-1-carboxylate] |  |  | 72.8 | 25 to 50
19 | CS(=O)(=O)c1ccc(-c2nc3cc(C4CCNCC4)ccc3o2)c(F)c1 [EXAMPLE-61, 2-[2-fluoro-4-(methylsulfonyl)phenyl]-5-(piperidin-4-yl)benzo[d]oxazole 2,2,2-trifluoroacetate] |  |  | 29.8 | 
20 | CCc1cnc(N2CCC(c3ccc4oc(-c5ccc(S(C)(=O)=O)cc5F)nc4c3)CC2)nc1 [EXAMPLE-62, 5-[1-(5-ethylpyrimidin-2-yl)piperidin-4-yl]-2-[2-fluoro-4-(methylsulfonyl)phenyl]benzo[d]oxazole] |  |  | 59.3 | < 500
21 | CC(C)(C)OC(=O)N1CCC(c2cc(F)c3oc(-c4ccc(S(C)(=O)=O)cc4F)nc3c2)CC1 [EXAMPLE-63, Tert-butyl 4-{7-fluoro-2-[2-fluoro-4-(methylsulfonyl)phenyl]benzo[d]oxazol-5-yl}piperidine-1-carboxylate] |  |  | 56.6 | 
22 | CC(C)(C)OC(=O)N1CC=C(c2ccc3nc(-c4ccc(S(C)(=O)=O)cc4F)sc3c2)CC1 [EXAMPLE-65, Tert-butyl 4-{2-[2-fluoro-4-(methylsulfonyl)phenyl]benzo[d]thiazol-6-yl}-5,6-dihydropyridine-1(2H)-carboxylate] |  |  | 32.1 | 
23 | CC(C)(C)OC(=O)N1CC=C(c2ccc3sc(-c4ccc(S(C)(=O)=O)cc4F)nc3c2)CC1 [EXAMPLE-66, Tert-butyl 4-{2-[2-fluoro-4-(methylsulfonyl)phenyl]benzo[d]thiazol-5-yl}-5,6-dihydropyridine-1(2H)-carboxylate] |  |  | 18.9 | 
24 | CC(C)(C)OC(=O)N1CCC(c2ccc3nc(-c4ccc(S(C)(=O)=O)cc4F)oc3c2)CC1 [EXAMPLE-67, Tert-butyl 4-{2-[2-fluoro-4-(methylsulfonyl)phenyl]benzo[d]oxazol-6-yl}piperidine-1-carboxylate] |  |  | 73 | 25 to 50
25 | CC(C)(C)OC(=O)N1CCC(c2ccc3sc(-c4ccc(S(C)(=O)=O)cc4F)nc3c2)CC1 [EXAMPLE-68, Tert-butyl 4-{2-[2-fluoro-4-(methylsulfonyl)phenyl]benzo[d]thiazol-5-yl}piperidine-1-carboxylate] |  |  | 72.7 | 
